Laboratory results published in US4772684A, “Peptides affecting blood pressure regulation” (Triton Biosciences, Inc., priority 1988, dated 1988).
Non-standard residues stand in square brackets, D forms with d. Residues, ends and D or L forms follow the SMILES beside them.

Columns and labels:
angiotensin II receptors = experiment: Inhibition of radiolabeled angiotensin II binding to isolated hepatic receptor; design: species or system rabbit; details: for ID50 (concentration of peptide that inhibited binding of radiolabeled angiotensin II by 50%): 0.25 nM [125I]angiotensin II, partially purified solubilized rabbit liver receptor, 60 minutes at 20° C.
Procedure: Inhibition of angiotensin II binding to angiotensin II receptors by peptides of this invention was measured through the use of radioactive angiotensin II. Rabbit livers were homogenized and centrifuged in order to isolate particles sedimenting between 1,000 and 100,000×g. A portion of the particles which binds angiotensin II was solubilized with 1% digitonin, followed by ammonium sulfate fractionation between 49 and 65% saturation, followed by DEAE-cellulose chromatography at pH 7.5 using a linear gradient between 0.0 and 0.3 M KCl. The partially purified, solubilized receptor preparation bound 17 pmoles of angiotensin II per mg of protein when analyzed by Scatchard analysis, indicating a purity of approximately 0.1%.
The assay for binding of angiotensin II to the receptor was as follows: The complete system (150 μl) contained 30 mM Tris-HCl, pH 7.5, 2.5 mM K2 EDTA, 0.2 mM PCMS, 0.25 nM [^125 I]angiotensin II (ca. 100,000 cpm), 100 μg BSA, 0.25% (v/v) Brij 99 (a polyoxyethylene ether of a fatty alcohol) and 30 μg of partially purified receptor. The reaction was initiated by addition of the receptor and samples were incubated for 60 minutes at 20° C. The reaction was terminated with 1 ml of cold 0.5% charcoal/0.05% dextran in 100 mM Tris-HCl, pH 7.5. Tubes were vortexed and then allowed to stand 10 minutes at 4° C., after which they were centrifuged and their supernatants, containing protein-bound angiotensin II, were counted.
The complete system under these conditions regularly yields about 10,000 cpm of bound radioactivity. […] A sample including 20 nM cold angiotensin II was also run. Residual binding of radioactivity in this control was 35-45%. Certain peptides of this invention were dissolved in water, except for Peptide 5, which was dissolved in 3% DMSO, 0.04 M acetic acid, and 0.05 M HCl in water.

[1] = tested on: AII-stimulated contraction of isolated rabbit aorta strips; experiment: Peptide effect on AII-stimulated contraction of arterial muscle strips; type: cell-based; details: AII 10^-9 M
Procedure: (§1) The peptides of this invention were tested in vitro, using an assay of isolated rabbit aorta strips mounted in a muscle bath.
(§2) Strips were mounted vertically on a glass holder in a tissue bath containing 50 ml of PSS. The upper end of each strip was connected to a force transducer. The bathing medium was maintained at 37° C. and aerated with a mixture of 95% O2 -5% CO2. The pH of the PSS was 7.2 and the composition, in mmoles/l, was as follows: NaCl 130, KCl 14.7, KH2 PO4 1.18, MgSO4 7H2 O 1.17, CaCl2 -2H2 O 1.6, […] 14.9, dextrose 5.5, and CaNa2 EDTA 0.03. In all experiments, the passive force on each strip was adjusted to 2,000 mg.
In another set of experiments, the ability of peptides to increase or decrease contraction caused by angiotensin II was measured.
The muscle strips were bathed in PSS containing AII, 10^-9 M. Strips were allowed to contract until a steady-state contraction was reached (^~8 minutes), then peptide was added in a step-wise. cumulative manner. The change in muscle strip contraction was measured after each addition of peptide, and more peptide was not added until contraction had stabilized from the previous peptide addition (10-15 minutes). Each peptide was tested in strips from 2 or 4 rabbits.
A positive value indicates increased contraction, while a negative value represents a decreased contractile response.

dog femoral vein = experiment: Angiotensin II-caused relaxation of isolated dog venous strips; type: cell-based; details: angiotensin II 3×10^-7 M
Procedure: Peptide 2 of this invention was tested in vitro, using an assay of isolated dog venous strips mounted in a muscle bath. Isolated segments of the dog femoral vein (n=2) were mounted in organ baths for measurement of isometric force generation. The conditions were as described in Example 3. The vascular segments were made to contract in response to prostaglandin F2a (8.5×10^-7 M). After the contraction reached a plateau, angiotensin II (3×10^-7 M) was added to the organ bath and the venous segments relaxed to approximately 50% of the response to prostaglandin F2a. This relaxation response to angiotensin II was inhibited 100% by saralasin ([…]) and by Peptide 2 (10^-5 M).

[2] = tested on: isolated rabbit aorta strips; experiment: Contractile response of isolated arterial smooth muscle strips in muscle bath; type: cell-based; details: cumulative addition
Procedure: as §1
as §2, with “The left anterior descending coronary artery was excised from the heart and cut helically into a strip under a dissecting microscope. Strips” for “Strips”
In one set of experiments, peptides were tested for ability to stimulate contractile response. Peptide was added to the bath in a step-wise, cumulative manner. Three peptides were tested: angiotensin II., Peptide 2 and Peptide 5. Muscle strips from between 2 and 6 rabbits were used to test each peptide.

rat hypertension model = experiment: Blood pressure in anesthetized rats (rat hypertension model); type: in vivo
Procedure: Peptide 2 of this invention was tested in vivo, using a rat hypertension model. Adult male rats (n=4) were anesthetized with sodium pentobarbital (50 mg/kg) and the left jugular vein was cannulated for infusion of drugs. Bolus injections of angiotensin II were delivered via the same venous catheter. The right carotid artery was cannulated for measurement of blood pressure. Injection of angiotensin II (1 ng) caused an increase in mean arterial blood pressure (^~ 50 mm Hg).

[3] = tested on: isolated rabbit aorta strips; experiment: Saralasin block of AII contraction and peptide-stimulated contraction in muscle strips; type: cell-based; details: saralasin 10^-8 M; AII 10^-9 M

CSCC[C@H](NC(=O)[C@H](Cc1ccc(O)cc1)NC(=O)[C@@H](NC(=O)CNC(=O)[C@@H](N)CCCCN)C(C)C)C(=O)N[C@@H](Cc1c[nH]cn1)C(=O)N[C@@H](CO)C(=O)N[C@@H](CC(C)C)C(=O)O [Peptide 13, NH2LYSGLYVALTYRMETHISSERLEUCOOH] (H-KGVYMHSL-OH)
ID50 (concentration of peptide that inhibited binding of radiolabeled angiotensin II by 50%) (angiotensin II receptors): 6 nM

CC[C@@H](C)[C@@H](NC(=O)[C@@H](Cc1ccc(O)cc1)NC(=O)[C@H](NC(=O)CNC(=O)[C@H](N)CCCCN)C(C)C)C(=O)N[C@H](Cc1c[nH]cn1)C(=O)N[C@H](C)C(=O)N[C@H](CC(C)C)C(=O)O [Peptide 11, NH2LYSGLYVALTYRILEHISALALEUCOOH] (H-[dK]G[dV][dY][dI][dH][dA][dL]-OH)
% Change from AII Response ([1]; peptide 3 × 10^-5 M): -7% | % Change from AII Response ([1]; peptide 3 × 10^-6 M): -3% | % Change from AII Response ([1]; peptide 10^-4 M): -33% | % Change from AII Response ([1]; peptide 10^-5 M): -5% | % Change from AII Response ([1]; peptide 10^-6 M): 0% | ID50 (concentration of peptide that inhibited binding of radiolabeled angiotensin II by 50%) (angiotensin II receptors): > 10,000 nM

CC[C@H](C)[C@H](NC(=O)[C@H](Cc1ccc(O)cc1)NC(=O)[C@@H](NC(=O)CNC(=O)[C@@H](N)CCCCN)C(C)C)C(=O)N[C@@H](Cc1c[nH]cn1)C(=O)N[C@@H](C)C(=O)N[C@@H](CC(C)C)C(N)=O [Peptide 7, NH2LYSGLYVALTYRILEHISALALEUCONH2] (H-KGVYIHAL-NH2)
ID50 (concentration of peptide that inhibited binding of radiolabeled angiotensin II by 50%) (angiotensin II receptors): 40 to 160 nM

Angiotensin II (DRVYIHPF; Angiotensin-2; UniProt P01019 25-32, looked up) [an octapeptide formed from angiotensin I by angiotensin converting enzyme; causes blood vessel constriction, reference compound]
Relaxation of venous segments, as % of the response to prostaglandin F2a (dog femoral vein; prostaglandin F2a 8.5×10^-7 M): approximately 50% | Average Baseline Response ([2]; 3 × 10^-8 M): 2,613 mg | Average Baseline Response ([2]; 3 × 10^-9 M): 2,332 mg | Average Baseline Response ([2]; 3 × 10^-10 M): 991 mg | Average Baseline Response ([2]; 3 × 10^-11 M): 0 mg | Average Baseline Response ([2]; 10^-8 M): 2,562 mg | Average Baseline Response ([2]; 10^-9 M): 1,726 mg | Average Baseline Response ([2]; 10^-10 M): 0 mg | Average Baseline Response ([2]; 10^-11 M): 0 mg | Increase in mean arterial blood pressure (rat hypertension model; bolus injection 1 ng, jugular vein, anesthetized rats): ~ 50 mm Hg | ID50 (concentration of peptide that inhibited binding of radiolabeled angiotensin II by 50%) (angiotensin II receptors): 12 to 15 nM | Residual binding of radioactivity (angiotensin II receptors; 20 nM cold angiotensin II): 35-45%

CC(C)[C@H](NC(=O)[C@@H]1CCCN1C(=O)[C@H](Cc1c[nH]cn1)NC(=O)[C@@H](NC(=O)[C@H](CC(=O)O)NC(=O)[C@@H](NC(=O)CNC(=O)[C@@H](N)CCC(N)=O)C(C)C)C(C)C)C(=O)O [Peptide 12, NH2GLNGLYVALASPVALHISPROVALCOOH] (H-QGVDVHPV-OH)
ID50 (concentration of peptide that inhibited binding of radiolabeled angiotensin II by 50%) (angiotensin II receptors): 5,000 nM

CNCC(=O)N[C@@H](CCCN=C(N)N)C(=O)N[C@H](C(=O)N[C@@H](Cc1ccc(O)cc1)C(=O)N[C@H](C(=O)N[C@@H](Cc1cnc[nH]1)C(=O)N1CCC[C@H]1C(=O)N[C@@H](C)C(=O)O)C(C)C)C(C)C [saralasin]
Inhibition of relaxation response to angiotensin II (dog femoral vein; 10^6 M (so in the source)): 100% | Effect on AII contraction [3]: decreased AII contraction | Effect on pressor activity of angiotensin II (rat hypertension model; constant infusion 1 mg/min, angiotensin II 1 ng): inhibited the pressor activity of angiotensin II

CC[C@H](C)[C@H](NC(=O)[C@H](Cc1ccc(O)cc1)NC(=O)[C@@H](NC(=O)CNC(=O)[C@H](CCCCN)NC(C)=O)C(C)C)C(=O)N[C@@H](Cc1c[nH]cn1)C(=O)N[C@@H](C)C(=O)N[C@@H](CC(C)C)C(N)=O [Peptide 9] (Ac-KGVYIHAL-NH2)
ID50 (concentration of peptide that inhibited binding of radiolabeled angiotensin II by 50%) (angiotensin II receptors): 2,400-3,100 nM

CSCC[C@H](NC(=O)[C@H](CC(=O)O)NC(=O)[C@@H](NC(=O)CNC(=O)[C@@H](N)CCCCN)C(C)C)C(=O)N[C@@H](Cc1c[nH]cn1)C(=O)N[C@@H](C)C(=O)N[C@@H](CC(C)C)C(=O)O [Peptide 3, NH2LYSGLYVALASPMETHISALALEUCOOH] (H-KGVDMHAL-OH)
ID50 (concentration of peptide that inhibited binding of radiolabeled angiotensin II by 50%) (angiotensin II receptors): 5,000 nM

CC[C@H](C)[C@H](NC(=O)[C@H](Cc1ccc(O)cc1)NC(=O)[C@@H](NC(=O)CNC(=O)[C@@H](N)CCCCN)C(C)C)C(=O)N[C@@H](Cc1c[nH]cn1)C(=O)N[C@@H](C)C(=O)N[C@@H](CC(C)C)C(=O)O [Peptide 2, NH2LYSGLYVALTYRILEHISALALEUCOOH] (H-KGVYIHAL-OH)
Inhibition of relaxation response to angiotensin II (dog femoral vein; 10^-5 M): 100% | % Change from AII Response ([1]; peptide 3 × 10^-5 M): -73% | % Change from AII Response ([1]; peptide 3 × 10^-6 M): 0% | % Change from AII Response ([1]; peptide 10^-4 M): -83% | % Change from AII Response ([1]; peptide 10^-5 M): -18% | % Change from AII Response ([1]; peptide 10^-6 M): 0% | Average Baseline Response ([2]; 3 × 10^-7 M): 0 mg | Average Baseline Response ([2]; 3 × 10^-8 M): 0 mg | Average Baseline Response ([2]; 3 × 10^-9 M): 0 mg | Average Baseline Response ([2]; 3 × 10^-10 M): 0 mg | Average Baseline Response ([2]; 10^-6 M): 0 mg | Average Baseline Response ([2]; 10^-7 M): 0 mg | Average Baseline Response ([2]; 10^-8 M): 0 mg | Average Baseline Response ([2]; 10^-9 M): 0 mg | Effect on baseline blood pressure (rat hypertension model; infusion 0.1 to 0.5 mg/min): did not alter baseline blood pressure | Effect on pressor responses to angiotensin II (rat hypertension model; infusion 0.1 to 0.5 mg/min, angiotensin II 1 ng): did not influence pressor responses to angiotensin II | ID50 (concentration of peptide that inhibited binding of radiolabeled angiotensin II by 50%) (angiotensin II receptors): 8 to 14 nM

CC(C)[C@H](NC(=O)[C@H](C)NC(=O)[C@H](Cc1ccc(O)cc1)NC(=O)[C@@H](NC(=O)[C@H](CC(=O)O)NC(=O)[C@@H](NC(=O)CNC(=O)[C@@H](N)CCCCN)C(C)C)C(C)C)C(=O)O [Peptide 1, NH2 - LYS-GLY-VAL-ASP-VAL-TYR-ALA-VAL-COOH] (H-KGVDVYAV-OH)
ID50 (concentration of peptide that inhibited binding of radiolabeled angiotensin II by 50%) (angiotensin II receptors): 4,000 nM
